Data as given in US9193687B2 (priority 2007, dated 2015).
Several values for one entry are separate records, joined by “and”; a condition that tells them apart may be missing. Equal values may be shown once. Where a name gives a salt, the structure may show the parent alone. Read-outs that look alike come from different tables or passages of the source.

Assays:
[1] = test system: Human mammary carcinoma (MX-1) tumor cells; assay: In vitro cytotoxicity, SRB assay, 72-hr incubation; conditions: read-out: Cytotoxicity IC50, MX-1
[2] = test system: human mammary carcinoma MX-1 xenograft; assay: Antitumor therapeutic effect against MX-1 xenograft in nude mice; format: in vivo; conditions: i.v. injection; for Therapeutic effect: complete tumor remission (CR), mice with CR/total and day: treatment from Day 8, dose and schedule per compound as in Table 3 (30-150 mg/kg); for Maximal body-weight loss (%) / Therapeutic effect: tumor relapse: dose and schedule per compound as in Table 3
Protocol: (§1) Athymic nude mice bearing the nu/nu gene were obtained from NCI, Frederick, Md. and used for all human tumor xenografts. Male nude mice 6 weeks or older weighing 20-24 g or more were used. Compounds were administered via the tail vein for i.v. injection or infusion as described previously.^64 A typical formulation for chemotherapeutic studies for each drug was dissolved in DSMO to make a 25 mg/ml fresh solution, 0.4 ml of this solution was mixed with 0.3 ml of Tween 80, plus 1.3 ml to make 2 ml of 5 mg/ml solution. Bolus injection volume was 0.1-0.2 ml per mouse. Tumor volume was assessed by measuring length×width×height (or width) by using a caliper. For tumor-bearing nude mice during the course of the experiment, the body weight refers to total weight minus the weight of the tumor. All animal studies were conducted in accordance with the guidelines for the National Institute of Health Guide for the Care and Use of Animals and the protocol approved by the Institutional Animal Care and Use Committee.
The therapeutic effects of a drug against human tumor xenografts in nude mice, under the optimal therapeutic conditions but without any lethality due to drug toxicity, the following degrees of therapeutic effects are defined and calculated by the following formula: […]
where • T0 is the initial tumor size (in mm^3) at beginning of drug treatment; • Tc is tumor size of untreated control group on a given date; and • Tx is tumor size of the drug treated group on a given date.
[formula] • Tumor disappearance (complete remission or CR) is defined by the effect where • [Tx=0] for a period of time (in days) for a proportion of animals (NCR/N), where • N is the total number of animals in the group, and NCR is the number of mice in the group that achieved CR. • Tumor relapse is quantitatively calculated by • [The Day tumor relapsed (Drelp)—The Day CR achieved (DCR)] (Eq. 3) for a proportion of animals (Nrelp/N) where N is the total number of animals in the group, and Nrelp is the number of the mice in the group that relapsed. • The log cell kill (LCK) of the tumor tissue after a given chemotherapy that reached CR is estimated by: LCK=log [2^(Tumor remission in days/Tumor doubling time in days)] (Eq. 4)
(§2) Athymic nude mice bearing the nu/nu gene were used for human breast tumor MX-1 xenograft (FIGS. 3 and 4) and human brain glioma U87 GM xenograft (FIG. 5). Nude mice were obtained from National Cancer Institute, Frederick, Md. Male mice 6 weeks old or older weighing 22 g or more were used for experiments with subcutaneous tumor inoculation as described previously.^67 Drug was administrated via the tail vein by iv injection. Tumor volumes were assessed by measuring length×width×height (or width) by using caliper. Vehicle used was 20 μL DMSO in 180 μL saline. All animal studies were conducted in accordance with the guidelines of the U.S. National Institutes of Health Guide for the Care and Use of Animals and the protocol approved by the Institutional Animal Care and Use Committee.

[3] = test system: Human colon carcinoma HCT-116 cells; assay: cells; conditions: HCT-116, 72 h, read-out: Cytotoxicity IC50, HCT-116
[4] = test system: biosynthesis of DNA, RNA and protein in MX-1 cells; assay: Inhibition of biosynthesis of DNA, RNA and protein (tritiated tracer incorporation); format: cell-based, human; conditions: for inhibition at 10 µM: Homo sapiens, MX1, read-out: Protein synthesis inhibition
Protocol: [^3H]Thymidine (1 uCi), [^3H]adenosine (1 μCi) and [^3H]leucine (2 μCi) were used as the tracers for incorporation into DNA, RNA and protein, respectively. […] Incubation was terminated at each time points as indicated.

[5] = test system: CCRF-CEM/Taxol; assay: In vitro cytotoxicity, XTT assay, taxol-resistant subline; conditions: read-out: Cytotoxicity IC50, CCRF-CEM/Taxol
[6] = test system: CCRF-CEM human lymphoblastic leukemia cells; assay: cells; conditions: 72 h, read-out: Cytotoxicity IC50, CCRF-CEM
[7] = test system: lung cancer H460; assay: cells; conditions: read-out: Cytotoxicity IC50, H460; Table 2
[8] = test system: Human colon carcinoma HCT-116 cells; conditions: read-out: Cytotoxicity IC50, HCT-116
[9] = test system: prostate cancer (PC3); assay: cells; conditions: read-out: Cytotoxicity IC50, PC3; Table 2
[10] = test system: lung cancer H1299; assay: cells; conditions: read-out: Cytotoxicity IC50, H1299; Table 2
[11] = test system: CCRF-CEM human lymphoblastic leukemia cells; conditions: read-out: Cytotoxicity IC50, CCRF-CEM
[12] = Half-life in rat plasma
[13] = Half-life in intravenous injection vehicle; conditions: intravenous injection vehicle (DMSO/Tween 80/saline)
[14] = test system: human glioma U87 GM s.c. xenograft; assay: Therapeutic effect against U87 glioma s.c. xenograft in nude mice; format: in vivo
Protocol: as §1
as §2, with “Committee. […]” for “Committee.”

Cc1cc(NC(=O)Nc2ccc(N(CCCl)CCCl)cc2)c2ccccc2n1 [BO-1038, 1-{4-[bis(2-chloroethyl)amino]phenyl}-3-(2-methylquinolin-4-yl)urea]
IC50 ([1]; Homo sapiens, 72 h): 0.34 µM | Therapeutic effect: complete tumor remission (CR), mice with CR/total and day [2]: achieved complete tumor remission and 3/3 CR on D16, 16, 16 | Maximal body-weight loss (%) [2]: 4% | Therapeutic effect: tumor relapse [2]: No relapse on D70 | IC50 [3]: 1.42 µM | inhibition at 10 µM [4]: 40 to 80% | IC50 ([5]; Homo sapiens, CCRF-CEM, 72 h): 0.43 µM | IC50 [6]: 0.19 µM

N.N.[Cl][Pt][Cl] [Cisplatin, reference compound]
IC50 [7]: 18.4 µM | IC50 ([8]; Table 2): 12.7 µM | IC50 [9]: 9.96 µM | IC50 [10]: 13.6 µM | IC50 ([11]; Table 2): 3.54 µM

Cc1cccc2c(Nc3cc(COC(=O)Nc4ccc(N(CCCl)CCCl)cc4)cc(NC(=O)OCC(C)C)c3)c3ccccc3nc12 [BO-1245]
IC50 ([1]; Table 1, SRB, 72-hr incubation): 5.97 µM | IC50 ([5]; Table 1, XTT, 72-hr incubation): 3.36 µM | IC50 ([8]; Table 1, SRB, 72-hr incubation): 2.4 µM

CN(C)CCC(=O)Nc1cccc(NC(=O)Nc2ccc(N(CCCl)CCCl)cc2)c1 (as salt: HCl) [BO-2091, N-(3-(3-(4-(bis(2-chloroethyl)amino)-phenyl)ureido)phenyl)-3-(dimethylamino)-propanamide]
melting point: 88 to 90 °C

CN(C)CC(=O)Nc1cccc(NC(=O)Nc2ccc(N(CCCl)CCCl)cc2)c1 (as salt: hydrochloride) [BO-2189, N-(3-(3-(4-(bis(2-chloroethyl)amino)phenyl)ureido)phenyl)-2-(dimethyl-amino)acetamide]
melting point: 62 to 64 °C

CC(C)COC(=O)Nc1cc(COC(=O)Nc2ccc(N(CCCl)CCCl)cc2)cc(Nc2c3ccccc3nc3ccccc23)c1 [BO-1244]
IC50 ([1]; Table 1, SRB, 72-hr incubation): 1.13 µM | IC50 ([5]; Table 1, XTT, 72-hr incubation): 0.65 µM | IC50 ([8]; Table 1, SRB, 72-hr incubation): 0.3 µM | IC50 ([11]; Table 1, XTT, 72-hr incubation): 0.19 µM

Cc1ccc(Nc2c3ccccc3nc3c(C)cccc23)cc1NC(=O)Nc1ccc(N(CCCl)CCCl)cc1 [BO-1051]
Therapeutic effect: complete tumor remission (CR), mice with CR/total and day [2]: achieved complete tumor remission and 3/3 CR on D16, 16, 18 | Maximal body-weight loss (%) [2]: 11% | Therapeutic effect: tumor relapse [2]: No relapse on D70 | IC50 [3]: 0.44 µM | Delay in reaching maximal effect on DNA and RNA biosynthesis ([4]; 10 μM): about 1 hr | inhibition at 10 µM [4]: < 20% | half-life [12]: 2.25 days | IC50 ([5]; Homo sapiens, CCRF-CEM, 72 h): 0.09 µM | IC50 [6]: 0.08 µM | half-life [13]: ~45 days | Tumor size as % of original tumor size ([14]; 100 mg/kg, Q2D×5, n=3, one cycle, 10 and 12 days after last dose): 18% | Tumor-growth suppression ([14]; BO-1049 150 mg/kg, BO-1051 100 mg/kg, BO-1055 30 mg/kg, Q2D×5, i.v.-injection): complete tumor-growth suppression | Therapeutic effect compared with cyclophosphamide (80 mg/kg, Q2D×5) ([14]; parallel study): superior therapeutic effects than cyclophosphamide

Cc1ccc(Nc2c3ccccc3nc3ccccc23)cc1NC(=O)Nc1ccc(N(CCCl)CCCl)cc1 [BO-1150]
IC50 ([1]; Table 1, SRB, 72-hr incubation): 0.58 µM | IC50 ([5]; Table 1, XTT, 72-hr incubation): 0.03 µM | IC50 ([8]; Table 1, SRB, 72-hr incubation): 0.26 µM | IC50 ([11]; Table 1, XTT, 72-hr incubation): 0.02 µM
